Results on 7 molecules are retold here after ChEMBL document CHEMBL6115028, “An Amazing 30-Year Journey around the DABO Family: A Medicinal Chemistry Lesson on a Versatile Class of Non-nucleoside HIV-1 Reverse Transcriptase Inhibitors” (J Med Chem, 2025).

≈ marks a conversion by molar mass, not a printed value.

One series relates to MT4. Description: Cytotoxicity against human MT4 cells assessed as reduction in cell growth measured after 3 days by MTT assay. In kind it is functional. The note with it: MT4, 72 h, time 3 day. Background: Formazan colour is commonly taken as a measure of viable cells.
Series [1] relates to Human immunodeficiency virus 1. Put plainly: Antiviral activity against HIV-1 MN infected in human […] cells at 0.03 MOI assessed as reduction in viral replication incubated for 2 hrs by ELISA analysis. It is filed as functional, organism-based. The note with it: Human immunodeficiency virus 1, MN, C8166, 2 h.
Series [2] relates to Human immunodeficiency virus 1. Description: Antiviral activity against HIV-1 NL4-3 harboring reverse transcriptase Y181C mutant infected in human C8166 cells assessed as reduction in virus-induced cytopathic effect measured for 2 hrs by ELISA analysis. It is filed as functional, organism-based. The note with it: Human immunodeficiency virus 1, NL4-3, C8166, 2 h. (In general: Cytopathic effects are the visible damage that an infection or toxin causes in cultured cells.)

For series [3], the system named is Human immunodeficiency virus 1. Put plainly: Antiviral activity against HIV-1 KM018 infected in human […] cells at 0.03 MOI assessed as reduction in viral replication incubated for 2 hrs by ELISA analysis. It is filed as functional, organism-based. The note with it: Human immunodeficiency virus 1, KM018, C8166, 2 h. A general note: ELISA stands for enzyme-linked immunosorbent assay.

In another series the test system is C8166. Description: Cytotoxicity against human C8166 cells assessed as reduction in cell growth measured after 3 days by MTT assay. In kind it is functional. The note with it: C8166, 72 h, time 3 day.
Series [4] relates to Human immunodeficiency virus 1. Put plainly: Antiviral activity against HIV-1 NL4-3 harboring reverse transcriptase V108I mutant infected in human C8166 cells assessed as reduction in virus-induced cytopathic effect measured for 2 hrs by ELISA analysis. The note with it: Human immunodeficiency virus 1, NL4-3, C8166, 2 h. In kind it is functional, organism-based.
Series [5] concerns Human immunodeficiency virus 1. Description: Antiviral activity against HIV-1 NL4-3 harboring reverse transcriptase K103N mutant infected in human C8166 cells assessed as reduction in virus-induced cytopathic effect measured for 2 hrs by ELISA analysis. In kind it is functional, organism-based. The conditions noted are these: Human immunodeficiency virus 1, NL4-3, C8166, 2 h.

Series [6] concerns the target T1, Human immunodeficiency virus type 1 reverse transcriptase (Human immunodeficiency virus 1, UniProt Q72547). Put plainly: Inhibition of HIV-1 Reverse transcriptase.
Series [7] deals with Human immunodeficiency virus 1. Put plainly: Antiviral activity against HIV-1 NL4-3 harboring reverse transcriptase V106M mutant infected in human C8166 cells assessed as reduction in virus-induced cytopathic effect measured for 2 hrs by ELISA analysis. In kind it is functional, organism-based. The conditions noted are these: Human immunodeficiency virus 1, NL4-3, C8166, 2 h.

Series [8] concerns Human immunodeficiency virus 1. Description: Antiviral activity against HIV-1 IIIB infected in human […] cells at 0.03 MOI assessed as reduction in viral replication incubated for 2 hrs by ELISA analysis. It is filed as functional, organism-based. The conditions noted are these: Human immunodeficiency virus 1, IIIB, C8166, 2 h.
Series [9] deals with Human immunodeficiency virus 1. Put plainly: Antiviral activity against HIV-1 NL4-3 harboring reverse transcriptase V106A mutant infected in human C8166 cells assessed as reduction in virus-induced cytopathic effect measured for 2 hrs by ELISA analysis. In kind it is functional, organism-based. The conditions noted are these: Human immunodeficiency virus 1, NL4-3, C8166, 2 h.

Series [10] relates to Human immunodeficiency virus 1. Put plainly: Antiviral activity against HIV-1 TC-2 infected in human […] cells at 0.03 MOI assessed as reduction in viral replication incubated for 2 hrs by ELISA analysis. In kind it is functional, organism-based. The conditions noted are these: Human immunodeficiency virus 1, TC-2, C8166, 2 h.
Series [11] has as its system Human immunodeficiency virus 1. Description: Antiviral activity against HIV-1 WAN infected in human […] cells at 0.03 MOI assessed as reduction in viral replication incubated for 2 hrs by ELISA analysis. In kind it is functional, organism-based. The note with it: Human immunodeficiency virus 1, WAN, C8166, 2 h.
Series [12] in a line: Solubility in water. It is filed as physicochemical.
Series [13] deals with Human immunodeficiency virus 1. Put plainly: Antiviral activity against wild type HIV-1 NL4-3 harboring reverse transcriptase infected in human C8166 cells assessed as reduction in virus-induced cytopathic effect measured for 2 hrs by ELISA analysis. It is filed as functional, organism-based. The note with it: Human immunodeficiency virus 1, NL4-3, C8166, 2 h.
The test system of series [14] is Human immunodeficiency virus 1. Description: Antiviral activity against HIV-1 A17 infected in human […] cells at 0.03 MOI assessed as reduction in viral replication incubated for 2 hrs by ELISA analysis. The conditions noted are these: Human immunodeficiency virus 1, A17, C8166, 2 h. In kind it is functional, organism-based.
A short description of series [15]: Cytotoxicity against human PBMC cells assessed as reduction in cell growth measured after 3 days by MTT assay. In kind it is functional. The note with it: 72 h, time 3 day.
In series [16] the test system is A-375. Put plainly: Inhibition of cell proliferation in human A-375 cells assessed as alive cells at 25 uM measured for 96 hrs relative to control. It is filed as functional.
For series [17], the system named is A-375. Put plainly: Inhibition of cell proliferation in human A-375 cells assessed as alive cells at 10 uM measured for 96 hrs relative to control. In kind it is functional.
The subject of series [18] is A-375. Description: Inhibition of cell proliferation in human A-375 cells assessed as alive cells at 2.5 uM measured for 96 hrs relative to control. It is filed as functional.
Series [19] has as its system A-375. Description: Inhibition of cell proliferation in human A-375 cells assessed as alive cells at 5 uM measured for 96 hrs relative to control. It is filed as functional.
Series [20] concerns the target T1, Human immunodeficiency virus type 1 reverse transcriptase. Put plainly: Binding affinity to wild type HIV-1 reverse transcriptase assessed as inhibition constant.
For a further series, the target named is Reverse transcriptase (Human immunodeficiency virus 1, UniProt Q9WKE8, K103N). Description: Binding affinity to HIV-1 reverse transcriptase K103N mutant assessed as inhibition constant.
Series [21] concerns Human immunodeficiency virus 1. Put plainly: Antiviral activity against wild type HIV-1 NL4-3 infected in human MT4 cells assessed as reduction in viral replication measured for 72 hrs by ELISA analysis. In kind it is functional, organism-based. The conditions noted are these: Human immunodeficiency virus 1, NL4-3, MT4, 72 h.
The subject of a further series is Micrococcus luteus. Description: Antibacterial activity against Micrococcus luteus ATCC 2188 assessed as reduction in bacterial growth incubated for 24 to 48 hrs by serial dilution method. In kind it is functional. The conditions noted are these: time 24-48 hrs.
The test system of the next series is Staphylococcus aureus. Description: Antibacterial activity against Staphylococcus aureus ATCC 6538 assessed as reduction in bacterial growth incubated for 24 to 48 hrs by serial dilution method. It is filed as functional. The note with it: time 24-48 hrs.
A further series concerns Escherichia coli. Put plainly: Antibacterial activity against Escherichia coli ATCC 25922 assessed as reduction in bacterial growth incubated for 24 to 48 hrs by serial dilution method. The conditions noted are these: time 24-48 hrs. In kind it is functional.
Another series relates to Bacillus subtilis. Put plainly: Antibacterial activity against Bacillus subtilis NRRL B-1481 assessed as reduction in bacterial growth incubated for 24 to 48 hrs by serial dilution method. The conditions noted are these: time 24-48 hrs. It is filed as functional.
The next series concerns Pseudomonas aeruginosa. Put plainly: Antibacterial activity against Pseudomonas aeruginosa ATCC 27853 assessed as reduction in bacterial growth incubated for 24 to 48 hrs by serial dilution method. It is filed as functional. The note with it: time 24-48 hrs.
Series [22] deals with Influenza B virus. Put plainly: Antiviral activity against Influenza B virus infected in dog MDCK cells assessed as reduction in viral replication incubated for 3 days by MTS assay. In kind it is functional, organism-based. The note with it: 72 h.
For series [23], the system named is Influenza A virus. Description: Antiviral activity against Influenza A virus A/H1N1 infected in MDCK cells reduction in virus induced cytopathic effect measured after 3 days by CPE assay. In kind it is functional, organism-based. The conditions noted are these: 72 h.
The test system of series [24] is Influenza A virus. Put plainly: Antiviral activity against Influenza A virus A/H1N1 infected in dog MDCK cells reduction in viral replication incubated for 3 days by MTS assay. It is filed as functional, organism-based. The conditions noted are these: 72 h.
Series [25] in a line: Cytotoxicity against dog MDCK cells assessed as reduction in cell viability measured for 3 days by MTT assay. It is filed as toxicity, cell-based, Canis lupus familiaris. The conditions noted are these: time 3 day.
The test system of series [26] is Influenza A virus. Put plainly: Antiviral activity against Influenza A virus A/H2N2 infected in dog MDCK cells reduction in virus induced cytopathic effect measured after 3 days by CPE assay. It is filed as functional, organism-based. The note with it: 72 h.
Series [27] relates to Influenza B virus. Description: Antiviral activity against Influenza B virus infected in dog MDCK cells assessed as reduction in cytopathic effect measured after 3 days by CPE assay. In kind it is functional, organism-based. The conditions noted are these: 72 h.
The test system of series [28] is Influenza A virus. Put plainly: Antiviral activity against Influenza A virus A/H2N2 infected in dog MDCK cells reduction in viral replication incubated for 3 days by MTS assay. In kind it is functional, organism-based. The conditions noted are these: 72 h.
Series [29] can be described thus: Inhibition of HIV-1 Reverse transcriptase G190S mutant. The arrangement: species or system Human immunodeficiency virus 1.
A further series has as its system Sindbis virus. Put plainly: Antiviral activity against Sindbis virus infected in Vero cells assessed as reduction in viral growth incubated for 96 hrs by plaque assay. It is filed as functional, organism-based.
A further series relates to Rubella virus. Description: Antiviral activity against Rubella virus infected in Vero cells assessed as reduction in viral growth incubated for 96 hrs by plaque assay. In kind it is functional, organism-based.
Series [30] has as its system Vesicular stomatitis virus. Description: Antiviral activity against Vesicular stomatitis virus infected in Vero cells assessed as inhibition of cytopathic effect measured after 96 hrs by fluorescence based CPE reduction method. It is filed as functional, organism-based.

One may read the CC50 as the concentration that lowers cell viability or growth by half. In general, EC50 refers to the concentration that produces a half-maximal response. Broadly, the IC50 is the midpoint of a concentration-inhibition curve. The term solubility denotes how much of the substance goes into solution per volume. The inhibition is the share of the control response that was lost under treatment. Usually Ki stands for the equilibrium dissociation constant of an inhibitor or competing ligand from its target. What is called MIC is the least concentration at which growth counts as inhibited.

As for `CCc1c(CC2CCCCC2)nc(SCC(=O)c2ccccc2)[nH]c1=O`, the half-maximal cytotoxic concentration (CC50) (with MT4; in the series with C8166; in series [15]) was greater than 100000 nM throughout. Besides, the concentration giving a half-maximal response (EC50) in series [1] turned out to be 5 nM; in series [2], 241 nM; in series [3], 41 nM; in series [4], 12 nM; in series [5], 709 nM; in series [7], 172 nM. Besides, the half-maximal effective concentration (EC50) is 2 nM in series [8]; 734 nM in series [9]; 8 nM in [10]; 25 nM in series [11]; 7 nM in series [13]; 38900 nM in series [14]. Also, the midpoint of inhibition in [6], the IC50, lay at 440 nM. The solubility in series [12] came out at 4 µg/mL (≈ 10.8 µM).
With `CCC(C)Sc1nc(C(CC)c2c(F)cccc2F)c(C)c(=O)[nH]1` (stereo not given), the inhibition at 25 µM in the series with A-375 [16] amounted to 5%. Moreover, the inhibition at 10 µM with A-375 [17] worked out at 12%. In addition, in the series on A-375 [18], the inhibition at 2.5 µM turned out to be 70%. In addition, the inhibition at 5 µM in the series on A-375 [19] was 30%.
With `Cc1c(C(C)c2c(F)cccc2Cl)nc(N(C)C)[nH]c1=O` (stereo not given), the values for the Ki (in series [20]; on Reverse transcriptase) were 17 nM and 750 nM, respectively. Also, the 50% effective concentration (EC50) in series [21] was 3 nM.
Consider `COc1cc(-c2nc(SC)[nH]c(=O)c2C#N)ccc1OCc1ccccc1`, for which the minimum inhibitory concentration (MIC) stood at 12.5 µM (≈ 4.74 µg/mL) in the series on Micrococcus luteus; 12.5 µg/mL (≈ 32.9 µM) with Staphylococcus aureus; 12.5 µg/mL (≈ 32.9 µM) in the series with Escherichia coli; 6.25 µg/mL (≈ 16.5 µM) in the series with Bacillus subtilis; 12.5 µg/mL (≈ 32.9 µM) in the series with Pseudomonas aeruginosa.
`COc1ccc(NC(=O)CSc2nc(Cc3cccc4ccccc34)c(C)c(=O)[nH]2)cc1`: the EC50 in the series with Influenza B virus [22] is greater than 22000 nM; with Influenza A virus [23] it was 9000 nM; in the series on Influenza A virus [24], 9000 nM; in the series on Influenza A virus [26], 26000 nM; with Influenza B virus [27], greater than 45000 nM; with Influenza A virus [28], 9700 nM. For the same molecule, the half-maximal cytotoxic concentration (CC50) at 72 h in series [25] was greater than 224000 nM.
In the case of `Cc1cc(/C=C/C#N)cc(C)c1Nc1ncnc(Nc2ccc(C#N)cc2)n1`, the IC50 in series [29] was 0.1 nM.
`CCN(CC)CCc1cc(=O)[nH]c(SC)n1`: the figures for the IC50 (in the series with Sindbis virus; in the series on Rubella virus; in [30]) were 44.3 µg/mL (≈ 184 µM), 3.9 µg/mL (≈ 16.2 µM) and 29 µg/mL (≈ 120 µM), respectively.
